Experimental data taken from the supplement of paper PMC4932681.

How the values were obtained:
[1] = test system: ZR-75-1; assay: relative IC50 (midpoint of fitted logistic curve, plateau may be below 50% inhibition; CellTiter-Glo viability); higher = less potent; settings: 72 h
How it was run: (§1)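 After seeding into 384-well plates with library drugs at five concentrations spanning a 10 000-fold range, breast cancer cell lines and their resistant derivatives were incubated 72 h at 37 °C. Resistant lines received medium with 1 μM of the selecting drug. CellTiter-Glo signal was read on a PHERAstar and scaled to vehicle-only and positive controls. Drug sensitivity score, relative IC50 (the curve midpoint) and top-dose inhibition came from logistic fits run in the Breeze pipeline.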

[2] = test system: T-47D Tam2; assay: as above; settings: 4-OH-tamoxifen in medium 1 µM; 72 h
How it was run: as §1

[3] = test system: BT-474 Tam2; assay: as above; settings: 4-OH-tamoxifen in medium 1 µM; 72 h
How it was run: as §1

[4] = test system: MCF-7 Tam1; assay: as above; settings: 4-OH-tamoxifen in medium 1 µM; 72 h
How it was run: as §1

[5] = test system: BT-474; assay: as above; settings: 72 h
How it was run: as §1

[6] = test system: MCF-7; assay: as above; settings: 72 h
How it was run: as §1

[7] = test system: ZR-75-1 Tam1; assay: as above; settings: 4-OH-tamoxifen in medium 1 µM; 72 h
How it was run: as §1

[8] = test system: ZR-75-1 Tam2; assay: as above; settings: 4-OH-tamoxifen in medium 1 µM; 72 h
How it was run: as §1

[9] = test system: T-47D; assay: as above; settings: 72 h
How it was run: as §1

[10] = test system: BT-474 Tam1; assay: as above; settings: 4-OH-tamoxifen in medium 1 µM; 72 h
How it was run: as §1

[11] = test system: ZR-75-1; assay: drug sensitivity score (DSS) (DSS (dimensionless)); higher = more sensitive; extreme values may be limits of the assay; settings: 72 h
How it was run: as §1

[12] = test system: T-47D Tam2; assay: as above; settings: 4-OH-tamoxifen in medium 1 µM; 72 h
How it was run: as §1

[13] = test system: T-47D Tam1; assay: as above; settings: 4-OH-tamoxifen in medium 1 µM; 72 h
How it was run: as §1

[14] = test system: BT-474 Tam2; assay: as above; settings: 4-OH-tamoxifen in medium 1 µM; 72 h
How it was run: as §1

[15] = test system: MCF-7 Tam1; assay: as above; settings: 4-OH-tamoxifen in medium 1 µM; 72 h
How it was run: as §1

[16] = test system: BT-474; assay: as above; settings: 72 h
How it was run: as §1

[17] = test system: MCF-7; assay: as above; settings: 72 h
How it was run: as §1

[18] = test system: ZR-75-1 Tam1; assay: as above; settings: 4-OH-tamoxifen in medium 1 µM; 72 h
How it was run: as §1

[19] = test system: ZR-75-1 Tam2; assay: as above; settings: 4-OH-tamoxifen in medium 1 µM; 72 h
How it was run: as §1

[20] = test system: T-47D; assay: as above; settings: 72 h
How it was run: as §1

[21] = test system: BT-474 Tam1; assay: as above; settings: 4-OH-tamoxifen in medium 1 µM; 72 h
How it was run: as §1

| SMILES | relative IC50 ([1]; 4-OH-tamoxifen in medium 0 µM) [µM] | relative IC50 ([1]; 4-OH-tamoxifen in medium 1 µM) [µM] | relative IC50 [2] [µM] | relative IC50 [3] [µM] | relative IC50 [4] [µM] | relative IC50 ([5]; 4-OH-tamoxifen in medium 0 µM) [µM] | relative IC50 ([5]; 4-OH-tamoxifen in medium 1 µM) [µM] | relative IC50 ([6]; 4-OH-tamoxifen in medium 1 µM) [µM] | relative IC50 [7] [µM] | relative IC50 [8] [µM] | relative IC50 ([9]; 4-OH-tamoxifen in medium 0 µM) [µM] | relative IC50 ([9]; 4-OH-tamoxifen in medium 1 µM) [µM] | relative IC50 [10] [µM] | drug sensitivity score ([11]; 4-OH-tamoxifen in medium 0 µM) | drug sensitivity score ([11]; 4-OH-tamoxifen in medium 1 µM) | drug sensitivity score [12] | drug sensitivity score [13] | drug sensitivity score [14] | drug sensitivity score [15] | drug sensitivity score ([16]; 4-OH-tamoxifen in medium 0 µM) | drug sensitivity score ([16]; 4-OH-tamoxifen in medium 1 µM) | drug sensitivity score ([17]; 4-OH-tamoxifen in medium 0 µM) | drug sensitivity score ([17]; 4-OH-tamoxifen in medium 1 µM) | drug sensitivity score [18] | drug sensitivity score [19] | drug sensitivity score ([20]; 4-OH-tamoxifen in medium 0 µM) | drug sensitivity score ([20]; 4-OH-tamoxifen in medium 1 µM) | drug sensitivity score [21] | relative IC50 ([6]; 4-OH-tamoxifen in medium 0 µM) [µM] |
| --- | --- | --- | --- | --- | --- | --- | --- | --- | --- | --- | --- | --- | --- | --- | --- | --- | --- | --- | --- | --- | --- | --- | --- | --- | --- | --- | --- | --- | --- |
| Cc1cc(Nc2nc(N[C@@H](C)c3ncc(F)cn3)ncc2Cl)[nH]n1 [AZD1480] | > 1 | > 1 | > 1 | > 1 | > 1 | > 1 | > 1 | > 1 | > 1 | > 1 | > 1 | > 1 | > 1 | 0 | 0 | 0 | 2.6 | 0 | 0 | 0 | 0 | 0.0046 | 0 | 0 | 0 | 0 | 0 | 0 | – |
| CC[C@H](Nc1ncnc2[nH]cnc12)c1nc2cccc(F)c2c(=O)n1-c1ccccc1 [CAL-101] | 1.21 | 1.21 | 1.71 | > 10 | > 10 | > 10 | – | – | 1.14 | 1.33 | – | – | > 10 | 4.36 | 4.39 | 2.66 | 0.811 | 0 | 0 | 0 | 0.147 | 2.04 | 0.584 | 4.88 | 5.82 | 0.0938 | 0.0607 | 0 | – |
| CCC1(c2ccc(N)cc2)CCC(=O)NC1=O (stereo not given) [Aminoglutethimide] | – | > 10 | > 10 | > 10 | > 10 | > 10 | – | – | > 10 | > 10 | > 10 | – | > 10 | 0 | 0 | 0 | 0 | 0 | 0 | 0 | 0.6 | 0 | 5.49 | 0 | 0 | 0 | 0.781 | 0 | > 10 |
| CCN1CCN(c2ccc(Nc3cc(N(C)C(=O)Nc4c(Cl)c(OC)cc(OC)c4Cl)ncn3)cc2)CC1 [NVP-BGJ398] | > 1 | > 1 | > 1 | > 1 | > 1 | > 1 | > 1 | > 1 | > 1 | > 1 | > 1 | > 1 | – | 0 | 0 | 0 | 1.07 | 0 | 0 | 0 | 0 | 0 | 0 | 0 | 0 | 0 | 0 | 6.97 | > 1 |
